Test results published in ChEMBL document CHEMBL5537200, “Discovery of Artemisinins as Microsomal Prostaglandins Synthase-2 Inhibitors for the Treatment of Colorectal Cancer via Chemoproteomics” (J Med Chem, 2024).
Calls of active or inactive are those of the source. No cut-off for these calls is given here.

What was measured:
HCT-116 [1] = test: Antiproliferative activity against human HCT-116 cells assessed as inhibition of cell growth by Cell-titer Glo luminescent assay; format: functional, cell-based
HCT-116 [2] = test: Growth inhibition of human HCT-116 cells incubated for 24 hrs by Cell-titer Glo luminescent assay; format: functional
HCT-116 [3] = test: Growth inhibition of human HCT-116 cells incubated for 48 hrs by Cell-titer Glo luminescent assay; format: functional
HCT-116 [4] = test: Growth inhibition of human HCT-116 cells incubated for 72 hrs by Cell-titer Glo luminescent assay; format: functional
[5] = target: T1, Prostaglandin E synthase 2 (Homo sapiens, UniProt Q9H7Z7); test: Inhibition of mPGES-2 in human HCT-116 cells assessed as downregulation of mPGES-2 expression at 10 uM incubated for 3 hrs by SDS-PAGE based pull-down assay; format: cell-based
[6] = target: T1, Prostaglandin E synthase 2; test: Inhibition of mPGES-2 in human HCT-116 cells assessed as downregulation of mPGES-2 expression at 10 uM incubated for 3 hrs under UV irradiation by SDS-PAGE based pull-down assay; format: cell-based
[7] = target: T1, Prostaglandin E synthase 2; test: Binding affinity to heme-free recombinant mPGES-2 (unknown origin) at 1 uM under UV irradiation by coomassie blue staining assay
[8] = target: T1, Prostaglandin E synthase 2; test: Binding affinity to heme-free recombinant mPGES-2 (unknown origin) at 1 uM in presence of NaVc under UV irradiation by coomassie blue staining assay
[9] = target: T1, Prostaglandin E synthase 2; test: Binding affinity to heme-free recombinant mPGES-2 (unknown origin) at 1 uM in presence of H2O2 under UV irradiation by coomassie blue staining assay
[10] = target: T1, Prostaglandin E synthase 2; test: Binding affinity to heme-free recombinant mPGES-2 (unknown origin) at 1 uM incubated for 1 hr followed by ART addition for 30 mins by competitive labeling gel fluorescence assay; settings: time 1.5 hrs
[11] = target: T1, Prostaglandin E synthase 2; test: Binding affinity to heme-free recombinant mPGES-2 (unknown origin) at 1 uM incubated for 1 hr pretreated with PGH2 addition by competitive labeling gel fluorescence assay
[12] = target: T1, Prostaglandin E synthase 2; test: Binding affinity to heme-free recombinant mPGES-2 (unknown origin) at 1 uM incubated for 1 hr pretreated with GSH addition by competitive labeling gel fluorescence assay
[13] = target: T1, Prostaglandin E synthase 2; test: Binding affinity to heme-bound recombinant mPGES-2 (unknown origin) at 1 uM in presence of NaVc under UV irradiation by coomassie blue staining assay
[14] = target: T1, Prostaglandin E synthase 2; test: Binding affinity to heme-bound recombinant mPGES-2 (unknown origin) at 1 uM in presence of H2O2 under UV irradiation by coomassie blue staining assay
[15] = target: T1, Prostaglandin E synthase 2; test: Binding affinity to heme-bound recombinant mPGES-2 (unknown origin) at 1 uM in presence of H2O2 without UV irradiation by coomassie blue staining assay
[16] = target: T1, Prostaglandin E synthase 2; settings: HCT-116, dose 20.0 µM, time 2.0 hrs
[17] = target: T1, Prostaglandin E synthase 2; test: Inhibition of heme-free recombinant mPGES-2 (unknown origin) at 100 uM by dilution assay relative to control
HCT-116 [18] = test: Antiproliferative activity against human HCT-116 cells assessed as inhibition of cell growth incubated for 48 hrs by Cell-titer Glo luminescent assay; format: functional, cell-based
SW-620 [19] = test: Antiproliferative activity against human SW620 cells assessed as inhibition of cell growth incubated for 48 hrs by Cell-titer Glo luminescent assay; format: functional, cell-based
HCT-116 [20] = test: Antiproliferative activity against human HCT-116 cells assessed as inhibition of cell growth at 50 uM incubated for 48 hrs in presence of aminolevulinic acid by Cell-titer Glo luminescent assay; format: functional, cell-based
SW-620 [21] = test: Antiproliferative activity against human SW620 cells assessed as inhibition of cell growth at 50 uM incubated for 48 hrs in presence of aminolevulinic acid by Cell-titer Glo luminescent assay; format: functional, cell-based
Caco-2 = test: Antiproliferative activity against human Caco-2 cells assessed as inhibition of cell growth at 50 uM incubated for 48 hrs in presence of aminolevulinic acid by Cell-titer Glo luminescent assay; format: functional, cell-based
[22] = target: T1, Prostaglandin E synthase 2; test: Inhibition of heme-free recombinant mPGES-2 (unknown origin) pre-incubated with compound for 15 mins followed by PGH2 addition measured after 1 min by ELISA
[23] = target: T1, Prostaglandin E synthase 2; test: Inhibition of heme-free recombinant mPGES-2 (unknown origin) pre-incubated with compound for 15 mins followed by PGH2 addition measured after 5 min by ELISA
[24] = target: T1, Prostaglandin E synthase 2; test: Inhibition of heme-free recombinant mPGES-2 (unknown origin) pre-incubated with compound for 15 mins followed by PGH2 addition measured after 10 min by ELISA
[25] = target: T1, Prostaglandin E synthase 2; test: Inhibition of heme-free recombinant mPGES-2 (unknown origin) pre-incubated with compound for 15 mins followed by PGH2 addition measured after 60 min by ELISA
HCT-116 [26] = test: Antiproliferative activity against human HCT-116 cells assessed as reduction in cell growth at 10 to 20 uM by Cell-titer Glo luminescent assay; format: functional, cell-based; settings: dose 10-20 µM
HCT-116 [27] = test: Antiproliferative activity against human HCT-116 cells assessed as reduction in cell growth at 50 uM by Cell-titer Glo luminescent assay; format: functional, cell-based
HCT-116 [28] = test: Antiproliferative activity against SiRNA mediated mPGES-2 knockdown human HCT-116 cells assessed as reduction in cell growth by Cell-titer Glo luminescent assay; format: functional, cell-based
[29] = target: T1, Prostaglandin E synthase 2; test: Inhibition of heme-free recombinant mPGES-2 (unknown origin) pre-incubated with compound for 15 mins followed by PGH2 addition measured after 30 min by ELISA
[30] = target: T1, Prostaglandin E synthase 2
Description: Displacement of ART-P1 from heme-free recombinant mPGES-2 (unknown origin) assessed as inhibition of ART-P1 binding to mPGES-2 incubated for 1 hr followed by ART-P1 addition for 30 mins by competitive labeling gel fluorescence assay

HCT-116 [31] = test: cells; settings: Homo sapiens, HCT-116, 48 h, read-out: INH
Description: Antiproliferative activity against human HCT-116 cells assessed as inhibition of cell growth at 50 uM incubated for 48 hrs in presence of succinylacetone by Cell-titer Glo luminescent assay relative to control

SW-620 [32] = test: cells; settings: Homo sapiens, SW-620, 48 h, read-out: INH
Description: Antiproliferative activity against human SW620 cells assessed as inhibition of cell growth at 50 uM incubated for 48 hrs in presence of succinylacetone by Cell-titer Glo luminescent assay relative to control

T1 sequence (Q9H7Z7 whole entry): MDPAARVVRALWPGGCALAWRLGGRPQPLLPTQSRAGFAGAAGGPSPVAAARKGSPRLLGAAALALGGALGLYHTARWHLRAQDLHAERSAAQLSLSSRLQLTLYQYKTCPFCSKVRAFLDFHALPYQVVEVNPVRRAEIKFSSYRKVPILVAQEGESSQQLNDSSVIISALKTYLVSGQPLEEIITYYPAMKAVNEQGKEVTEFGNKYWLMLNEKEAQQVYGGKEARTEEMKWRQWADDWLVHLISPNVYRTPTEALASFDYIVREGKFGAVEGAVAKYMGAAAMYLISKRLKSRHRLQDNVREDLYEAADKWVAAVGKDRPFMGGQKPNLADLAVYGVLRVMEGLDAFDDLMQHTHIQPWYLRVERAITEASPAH

## C[C@H]1[C@@H](CCCO)O[C@@H]2O[C@]3(C)CC[C@H]4[C@H](C)CC[C@@H]1[C@@]24OO3
HCT-116 [1]
  IC50: 38.1 µM

## C[C@H]1[C@@H](OC(=O)c2ccccc2)O[C@@H]2O[C@]3(C)CC[C@H]4[C@H](C)CC[C@@H]1[C@@]24OO3
HCT-116 [1]
  IC50: 3.9 µM

## C=CC[C@H]1O[C@@H]2O[C@]3(C)CC[C@H]4[C@H](C)CC[C@@H]([C@H]1C)[C@@]24OO3
HCT-116 [1]
  IC50: 8.5 µM

## C#CCCC1(CCN2CCN(CCC[C@H]3O[C@@H]4O[C@]5(C)CC[C@H]6[C@H](C)CC[C@@H]([C@H]3C)[C@@]46OO5)CC2)N=N1
HCT-116 [2]
  GI50: 53.1 µM
HCT-116 [3]
  GI50: 35.9 µM
HCT-116 [4]
  GI50: 22.5 µM

## C#CCN(CCC[C@H]1O[C@@H]2O[C@]3(C)CC[C@H]4[C@H](C)CC[C@@H]([C@H]1C)[C@@]24OO3)C(=O)CCC1(C)N=N1
HCT-116 [2]
  GI50: 13.4 µM
HCT-116 [3]
  GI50: 5.1 µM
HCT-116 [4]
  GI50: 3.9 µM
[5]
  inhibition: Active
[6]
  inhibition: Active
[7]
  Activity: Active
[8]
  Activity: inactive
[9]
  Activity: inactive
[10]
  Activity: inactive
[11]
  Activity: inactive
[12]
  Activity: Active
[13]
  Activity: Active
[14]
  Activity: inactive
[15]
  Activity: inactive
[16]
  Tm: 46.9 °C

## C[C@H]1[C@@H](CCCN2CCNCC2)O[C@@H]2O[C@]3(C)CC[C@H]4[C@H](C)CC[C@@H]1[C@@]24OO3
HCT-116 [1]
  IC50: > 50 µM

## NC(=O)CI
[17]
  inhibition: inactive

## CO[C@H]1O[C@@H]2O[C@@]3(C)CC[C@H]4[C@H](C)CC[C@@H]([C@H]1C)[C@@]24OO3 [ARTEMETHER]
HCT-116 [1]
  IC50: 8.6 µM

## C[C@@H]1CC[C@H]2[C@@H](C)C(=O)O[C@@H]3O[C@@]4(C)CC[C@@H]1[C@]32OO4 [ARTEMISININ]
HCT-116 [1]
  IC50: 7.2 µM
HCT-116 [18]
  Activity: Active
SW-620 [19]
  Activity: Active
HCT-116 [20]
  Activity: inactive
SW-620 [21]
  Activity: inactive
Caco-2
  Activity: inactive
HCT-116 [2]
  GI50: 22.5 µM
HCT-116 [3]
  GI50: 7.2 µM
HCT-116 [4]
  GI50: 4.3 µM
[22]
  IC50: 10.8 µM
[23]
  IC50: 9.9 µM
[24]
  IC50: 10.3 µM
[25]
  IC50: 8.8 µM
HCT-116 [26]
  Activity: Active
HCT-116 [27]
  Activity: Active
HCT-116 [28]
  Activity: inactive
[29]
  IC50: 8.9 µM
[30]
  IC50: 8.8 µM
[16]
  Tm: 62.5 °C
HCT-116 [31]
  inhibition at 50 µM: > 50%
SW-620 [32]
  inhibition at 50 µM: > 50%

## C[C@H]1[C@@H](O)O[C@@H]2O[C@@]3(C)CC[C@H]4[C@H](C)CC[C@@H]1[C@@]24OO3 [ARTENIMOL]
HCT-116 [1]
  IC50: 13.6 µM

## C[C@H]1[C@H](OC(=O)CCC(=O)O)O[C@@H]2O[C@@]3(C)CC[C@H]4[C@H](C)CC[C@@H]1[C@@]24OO3 [ARTESUNATE]
HCT-116 [1]
  IC50: 0.46 µM

## C[C@@H]1CC[C@H]2[C@@H](C)C(=O)O[C@@H]3O[C@@]4(C)CC[C@@H]1[C@]32O4 [DEOXYARTEMISININ]
HCT-116 [1]
  IC50: > 50 µM
[30]
  IC50: > 50 µM
[16]
  Tm: 63.4 °C
